The subject of the experiment is MM.1S cells. The experiment can be described thus: Inhibitory effect on the proliferation of MM.1S, MTS cell viability test. Particulars: Homo sapiens, MM1.S, 168 h, multiple myeloma MM.1S cells, 7 days incubation, read-out: Tumor cell inhibitory activity. The format is cell-based. Put shortly:
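Viability measured by MTS (OD490 minus OD690 background, 3-4 h) after a 7-day exposure of 20,000 MM.1S cells/well to 5-fold serially diluted compound, 0.2% DMSO final. Inhibition calculated relative to DMSO wells; IC50 curve-fitted, averaged over three repeats.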
(In general: Tetrazolium assays rely on reduction of a dye to a coloured formazan, in cell work by metabolically active cells.)
On to `O=C1CCC(N2Cc3c(CCC[C@H](NC(=O)C4CC4)C(=O)NCc4ccccc4)cccc3C2=O)C(=O)N1` (stereo partly drawn) [Example 165, N-((2S)-1-(benzylamino)-5-(2-(2,6-dioxopiperidine-3-)-1-oxoisoindoline-4-)-1-oxopentyl-2-)cyclopropylformamide], for which the IC50 is less than 100 nM.

Consider `CC(=O)N[C@@H](CCCc1cccc2c1CN(C1CCC(=O)NC1=O)C2=O)C(=O)NC(C)(C)C` (stereo partly drawn) [Example 168, (2S)-2-acetylamino-N-tert-butyl-(2-(2,6-dioxopiperidine-3-)-1-oxoisoindoline-4-)pentanamide], for which the IC50 lay in the range of 1000 to 20000 nM.

On to `CC(=O)N[C@@H](CCCc1cccc2c1CN(C1CCC(=O)NC1=O)C2=O)C(=O)N[C@H](C)c1ccccc1` (stereo partly drawn) [Example 169, (2S)-2-acetylamino-5-(2-(2,6-dioxopiperidine-3-)-1-oxoisoindoline-4-)-N—((R)-1-phenethyl)pentanoamide], for which the IC50 is less than 100 nM.

`N[C@@H](CCCc1cccc2c1CN(C1CCC(=O)NC1=O)C2=O)C(=O)Nc1ccccc1-c1ccccn1` (stereo partly drawn) [Example 170, (2S)-2-amino-5-(2-(2,6-dioxopiperidine-3-)-1-oxoisoindoline-4-)-N-(2-(pyridine-2-)phenyl)pentanamide]: the IC50 was greater than 20000 nM.

Take `CC(=O)N[C@@H](CCCc1cccc2c1CN(C1CCC(=O)NC1=O)C2=O)C(=O)N[C@@H](C)c1ccccc1` (stereo partly drawn) [Example 171, (2S)-2-acetylamino-5-(2-(2,6-dioxopiperidine-3-)-1-oxoisoindoline-4-)-N—((S)-1-phenethyl)pentanamide]: the IC50 lay in the range of 1000 to 20000 nM.

Take `N[C@@H](CCCc1cccc2c1CN(C1CCC(=O)NC1=O)C2=O)C(=O)Nc1ccccc1-c1cccnc1` (stereo partly drawn) [Example 172, (2S)-2-amino-5-(2-(2,6-dioxopiperidine-3-)-1-oxoisoindoline-4-)-N-(2-(pyridine-3-)phenyl)pentaneamide]: the IC50 was greater than 20000 nM.

On to `N[C@@H](CCCc1cccc2c1CN(C1CCC(=O)NC1=O)C2=O)C(=O)NC12CC3CC(CC(C3)C1)C2` (stereo partly drawn) [Example 174, (2S)—N-((3R,5R,7R)-adamantane-1-)-2-amino-5-(2-(2,6-dioxopiperidine-3-)-1-oxoisoindoline-4-)pentanamide], for which the IC50 was greater than 20000 nM.

As to `CC(=O)N[C@@H](CCCc1cccc2c1CN(C1CCC(=O)NC1=O)C2=O)C(=O)N[C@H]1CCc2ccccc21` (some centres unmarked) [Example 175], the IC50 lay within 100 to 1000 nM.

On to `N[C@@H](CCCc1cccc2c1CN(C1CCC(=O)NC1=O)C2=O)C(=O)NC1C2CC3CC(C2)CC1C3` (stereo partly drawn) [Example 176, (2S)—N-((1S,3S,5S,7 S)-adamantane-2-)-2-amino-5-(2-(2,6-dioxopiperidine-3-)-1-oxoisoindoline-4-)pentanamide], for which the IC50 is greater than 20000 nM.

Regarding `CC(=O)N[C@@H](CCCc1cccc2c1CN(C1CCC(=O)NC1=O)C2=O)C(=O)N[C@@H]1CCc2ccccc21` (stereo partly drawn) [Example 177, (2S)-2-acetylamino-N—((R)-2,3-dihydro-1H-indene-1-)-5-(2-(2,6-dioxopiperidine-3-)-1-oxoisoindoline-4-)pentanamide], the IC50 lay within 100 to 1000 nM.

For the compound `CC(=O)N[C@@H](CCCc1cccc2c1CN(C1CCC(=O)NC1=O)C2=O)C(=O)NCc1ccc(F)cc1F` (stereo partly drawn) [Example 178, (2S)-2-acetylamino-N-(2,4-difluorobenzyl)-5-(2-(2,6-dioxopiperidine-3-)-1-oxoisoindoline-4-)oxoisoindoline], the IC50 lay within 100 to 1000 nM.

Regarding `CC(=O)N[C@@H](CCCc1cccc2c1CN(C1CCC(=O)NC1=O)C2=O)C(=O)N[C@H]1CCCc2ccccc21` (stereo partly drawn) [Example 179, (2S)-2-acetylamino-5-(2-(2,6-dioxopiperidine-3-)-1-oxoisoindoline-4-)-N—((S)-1,2,3,4-tetrahydronaphthyl-1-)pentanamide], the IC50 was less than 100 nM.

As to `COc1ccc(CNC(=O)[C@H](CCCc2cccc3c2CN(C2CCC(=O)NC2=O)C3=O)NC(C)=O)c(OC)c1` (stereo partly drawn) [Example 180, (2S)-2-acetylamino-N-(2,4-dimethoxybenzyl)-5-(2-(2,6-dipiperidine-3-)-1-oxoisoindoline-4-)pentanamide], the IC50 fell in the range of 100 to 1000 nM.

For the compound `CC(=O)N[C@@H](CCCc1cccc2c1CN(C1CCC(=O)NC1=O)C2=O)C(=O)NC(c1ccccc1)c1ccccc1` (stereo partly drawn) [Example 181, (2S)-2-acetylamino-N-benzhydryl-5-(2-(2,6-dioxopiperidine-3-)-1-oxoisoindoline-4-) pentanamide], the IC50 lay within 100 to 1000 nM.

With `Cc1ccc(NC(=O)[C@H](CCCc2cccc3c2CN(C2CCC(=O)NC2=O)C3=O)NC(=O)C(C)C)cc1Cl` (stereo partly drawn) [Example 183, (2S)—N-(3-chloro-4-methylphenyl)-5-(2-(2,6-dioxopiperidine-3-)-1-oxoisoindoline-4-)-2-isobutyrylaminopentanamide], the IC50 was less than 100 nM.

`CC(=O)N[C@@H](CCCc1cccc2c1CN(C1CCC(=O)NC1=O)C2=O)C(=O)NCc1cccc(Cl)c1` (stereo partly drawn) [Example 184, (2S)-2-acetylamino-N-(3-chlorobenzyl)-5-(2-(2,6-dioxopiperidine-3-)-1-oxoisoindoline-4-)pentanamide]: the IC50 was 100 to 1000 nM.

For `Cc1ccc(NC(=O)[C@H](CCCc2cccc3c2CN(C2CCC(=O)NC2=O)C3=O)NC(=O)C2CC2)cc1Cl` (stereo partly drawn) [Example 185, N-((2S)-1-((3-chloro-4-methylphenyl)amino)-5-(2-(2,6-dioxopiperidine-3-)-1-oxoisoindoline-4-)-1-oxopentyl-2-)cyclopropylformamide], the IC50 is less than 100 nM.

In the case of `CC(=O)N[C@@H](CCCc1cccc2c1CN(C1CCC(=O)NC1=O)C2=O)C(=O)NCc1ccc(N2CCCC2)cc1` (stereo partly drawn) [Example 186, (2S)-2-acetylamino-5-(2-(2,6-dioxopiperidine-3-)-1-oxoisoindoline-4-)-N-(4-(pyrrolidine-1-)benzyl)pentanamide], the IC50 lay within 100 to 1000 nM.

For `Cc1ccc(NC(=O)[C@H](CCCc2cccc3c2CN(C2CCC(=O)NC2=O)C3=O)NC(=O)C2CCC2)cc1Cl` (stereo partly drawn) [Example 187, N-((2S)-1-((3-chloro-4-methylphenyl)amino)-5-(2-(2,6-dioxopiperidine-3-)-1-oxoisoindoline-4-)-1-oxopentyl-2-)cyclobutylcarboxamide], the IC50 is less than 100 nM.

`CC(=O)N[C@@H](CCCc1cccc2c1CN(C1CCC(=O)NC1=O)C2=O)C(=O)NC(C)(C)c1ccccc1` (stereo partly drawn) [Example 188, (2S)-2-acetylamino-5-(2-(2,6-dioxopiperidine-3-)-1-oxoisoindoline-4-)-N-(2-phenylpropyl-2-)pentanamide]: the IC50 was 100 to 1000 nM.

Regarding `Cc1ccc(NC(=O)[C@H](CCCc2cccc3c2CN(C2CCC(=O)NC2=O)C3=O)NC(=O)CCCCCN)cc1Cl` (stereo partly drawn) [Example 189, 6-amino-N-((2S)-1-((3-chloro-4-methylphenyl)amino)-5-(2-(2,6-dioxopiperidine-3-)-1-oxoisoindoline-4-)-1-oxopentyl-2-)hexanamide], the IC50 lay in the range of 100 to 1000 nM.

For `CC(=O)N[C@@H](CCCc1cccc2c1CN(C1CCC(=O)NC1=O)C2=O)C(=O)NCc1ccc(OCCN(C)C)cc1` (some centres unmarked) [Example 190], the IC50 lay in the range of 1000 to 20000 nM.

With `Cc1ccc(NC(=O)[C@H](CCCc2cccc3c2CN(C2CCC(=O)NC2=O)C3=O)NC(=O)C2CCNCC2)cc1Cl` (stereo partly drawn) [Example 191, N-((2S)-1-((3-chloro-4-methylphenyl)amino)-5-(2-(2,6-dioxopiperidine-3-) -1-oxoisoindoline-4-)-1-oxopentyl-2-)piperidine-4-carboxamide], the IC50 was 100 to 1000 nM.

These data come from patent publication US12459921B2, “Isoindoline compound, preparation method, pharmaceutical composition and use thereof” (SHANGHAI INSTITUTE OF MATERIA MEDICA, CHINESE ACADEMY OF …, priority 2018, dated 2025).
